# Positions of bridges follow the written chain, without caps; N, C: chain ends. Non-standard residues stand in square brackets, D forms with d. Residues, ends and D or L forms follow the SMILES beside them. *: point of attachment. 5FAM = O=C1OC2(c3ccc(O)cc3Oc3cc(O)ccc32)c2ccc(C(=O)*)cc21; βAla = NCCC(=O)O
# System: TmrAB
# Assay: Conformational epitope test, CP^F anisotropy with TmrAB and SDS
# Format: binding, Thermus thermophilus
# Procedure: In order to analyze the binding affinity and specificity of CPs to TmrAB, we established a fluorescence polarization assay. Fluorescein-labeled CP^Fs were incubated with increasing concentrations of TmrAB reconstituted in liposomes at a protein-to-lipid ratio of 1:20 (w/w). […] To address whether the CPs recognize a linear or non-linear epitope, we examined the binding of CP^Fs after disrupting the quaternary and tertiary structure of TmrAB complexes by adding anionic detergent SDS.
# Figure 2. […] (A, B) Equilibrium binding analysis. Fluorescence anisotropy of CP^Fs (50 nM) was determined at λex/em = 485/520 nm with increasing concentrations of TmrAB which was reconstituted in liposomes. TmrAB concentrations were calculated based on the random (50/50%) orientation in proteoliposomes ([Stefan et al., 2020]). As a control, equal amounts of empty liposomes were added to CP^Fs (dashed lines, open symbols). The difference in fluorescence polarization was normalized to free (0%) and 100% bound CP^F. Mean values ± SD (n = 3) are shown, and data were analyzed by a one-site binding model. […] Streptavidin beads loaded with CP14^B (1 µM) were mixed with purified TmrAB (60 nM) for 1 hr at 4°C. Beads were washed and bound TmrAB was eluted by adding SDS loading buffer for 10 min at 95°C. Amounts of TmrA in input (I), flow-through (FT), wash fraction (W), and eluate (E) were analyzed by SDS-PAGE and immunoblotting (α-His). Beads without CP^B served as negative control (right panel). (D) One-step purification of TmrAB via immobilized CP14^B matrices. Streptavidin-agarose beads were loaded with CP14^B (1 µM) and mixed with DDM-solubilized membranes of E. coli containing TmrAB as described in (C). Bound TmrAB was eluted in SDS loading buffer and analyzed by SDS-PAGE (silver stain). (E) Native mass spectrometry. TmrAB (4 µM) was buffer exchanged to ESI buffer and incubated with a 2-fold molar excess of CP14^F for 10 min on ice. Protein complexes were investigated by ESI-TOF-mass spectrometry. […] Figure 2—source data 1. Source data for Figure 2. Figure 2—figure supplement 1. […] (A) CP^Bs-mediated isolation of solubilized TmrAB. Streptavidin matrices were loaded with CP^Bs (1 µM) and incubated with purified TmrAB (60 nM) for 1 hr at 4°C. Beads without CP^Bs served as control (see Figure 2C). Bound TmrAB complexes were eluted by the addition of SDS loading buffer for 10 min at 95°C. TmrAB in input (I), flow-through (FT), washing fraction (W), and eluate (E) was analyzed by SDS-PAGE and immunoblotting (α-His). (B) Isolation of TmrAB using CP13^B. Streptavidin matrices were loaded with CP13^B (1 µM) and mixed with DDM-solubilized membranes of E. coli expressing TmrAB as described in (A). Bound TmrAB complexes were eluted in SDS loading buffer and analyzed by SDS-PAGE (silver stain). (C) Formation of CP^F-TmrAB complexes. DDM-solubilized TmrAB (1 µM) was incubated with CP12^F, CP13^F, CP14^F (2 µM each), or CP6^F (5 µM) for 10 min on ice. CP^F-TmrAB complexes were analyzed by gel filtration. […] (D) Conformational epitopes. CP^Fs (50 nM) were incubated with TmrAB (0.6 µM for CP6^F and CP13^F, 0.7 µM for CP12^F, 0.5 µM for CP14^F) in the presence of 1% (v/v) SDS. Fluorescence anisotropy was determined at λex/em = 485/520 nm. […] Figure 2—figure supplement 1—source data 1. Source Data for Figure 2—figure supplement 1. [drawing 2] Figure 2—figure supplement 2. Analysis of CP^F-TmrAB complexes by native mass spectrometry.
# [1] = listed as CPF: CP^F 50 nM alone
# [2] = listed as SDS: CP^F 50 nM + TmrAB + 1% (v/v) SDS
# [3] = listed as TmrAB: CP^F 50 nM + TmrAB (0.6 µM CP6^F/CP13^F, 0.7 µM CP12^F, 0.5 µM CP14^F)
SMILES,Fluorescence anisotropy [1],Fluorescence anisotropy [2],Fluorescence anisotropy [3]
CC[C@H](C)[C@@H]1NC(=O)[C@H]([C@@H](C)O)NC(=O)[C@H](CC(C)C)NC(=O)[C@H](Cc2c[nH]c3ccccc23)NC(=O)[C@H](Cc2ccccc2)NC(=O)[C@H](CC(N)=O)NC(=O)[C@H](CCC(=O)O)NC(=O)[C@H](CC(C)C)NC(=O)[C@H](CS)NC(=O)[C@H](Cc2c[nH]cn2)NC(=O)[C@H](CO)NC(=O)[C@@H](Cc2ccc(O)cc2)NC(=O)CSC[C@@H](C(=O)NCC(=O)N[C@@H](CO)C(=O)NCCC(=O)NCCC(=O)N[C@@H](CCCNC(=N)N)C(=O)N[C@@H](CCCCNC(=O)c2ccc3c(c2)C(=O)OC32c3ccc(O)cc3Oc3cc(O)ccc32)C(N)=O)NC(=O)[C@H](CC(C)C)NC1=O [CP6] ({CH2CO}-[dY]SHCLENFWLTILCGS[βAla][βAla]RK(5FAM)-NH2; thioether N-14),0.0222,0.0146,0.1093
CC(C)C[C@@H]1NC(=O)[C@H](Cc2ccccc2)NC(=O)CNC(=O)[C@H](CO)NC(=O)[C@H](Cc2ccccc2)NC(=O)[C@H](CC(=O)O)NC(=O)[C@@H]2CCCN2C(=O)[C@H]([C@@H](C)O)NC(=O)[C@@H](Cc2ccc(O)cc2)NC(=O)CSC[C@@H](C(=O)NCC(=O)N[C@@H](CO)C(=O)NCCC(=O)NCCC(=O)N[C@@H](CCCNC(=N)N)C(=O)N[C@@H](CCCCNC(=O)c2ccc3c(c2)C(=O)OC32c3ccc(O)cc3Oc3cc(O)ccc32)C(N)=O)NC(=O)[C@H](C)NC(=O)[C@H](CC(N)=O)NC(=O)[C@H](CCCNC(=N)N)NC(=O)[C@H](CC(C)C)NC(=O)[C@H](Cc2ccccc2)NC(=O)[C@H](C)NC1=O [CP12] ({CH2CO}-[dY]TPDFSGFLAFLRNACGS[βAla][βAla]RK(5FAM)-NH2; thioether N-16),0.0250,0.0265,0.1604
CC[C@H](C)[C@@H]1NC(=O)[C@H](Cc2c[nH]c3ccccc23)NC(=O)[C@H](CC(N)=O)NC(=O)[C@H](C)NC(=O)[C@H](CO)NC(=O)[C@@H]2CCCN2C(=O)[C@H](CC(=O)O)NC(=O)[C@@H](Cc2ccc(O)cc2)NC(=O)CSC[C@@H](C(=O)NCC(=O)N[C@@H](CO)C(=O)NCCC(=O)NCCC(=O)N[C@@H](CCCNC(=N)N)C(=O)N[C@@H](CCCCNC(=O)c2ccc3c(c2)C(=O)OC32c3ccc(O)cc3Oc3cc(O)ccc32)C(N)=O)NC(=O)[C@H]([C@@H](C)O)NC(=O)[C@H](CC(C)C)NC(=O)[C@H](CC(C)C)NC(=O)[C@H](C(C)C)NC(=O)[C@H](CC(C)C)NC1=O [CP13] ({CH2CO}-[dY]DPSANWILVLLTCGS[βAla][βAla]RK(5FAM)-NH2; thioether N-14; C-terminus assumed),0.0252,0.0310,0.1217
CC(C)[C@@H]1NC(=O)[C@H](Cc2ccccc2)NC(=O)[C@@H]2CCCN2C(=O)[C@H](CC(N)=O)NC(=O)[C@H](Cc2c[nH]c3ccccc23)NC(=O)[C@H](C(C)C)NC(=O)[C@H](Cc2ccc(O)cc2)NC(=O)[C@H](Cc2ccccc2)NC(=O)[C@@H](Cc2ccc(O)cc2)NC(=O)CSC[C@@H](C(=O)NCC(=O)N[C@@H](CO)C(=O)NCCC(=O)NCCC(=O)N[C@@H](CCCNC(=N)N)C(=O)N[C@@H](CCCCNC(=O)c2ccc3c(c2)C(=O)OC32c3ccc(O)cc3Oc3cc(O)ccc32)C(N)=O)NC(=O)[C@H](CCCCN)NC(=O)[C@H](Cc2ccccc2)NC1=O [CP14] ({CH2CO}-[dY]FYVWNPFVFKCGS[βAla][βAla]RK(5FAM)-NH2; thioether N-12; C-terminus assumed),0.0267,0.0311,0.1410

# Reference: PMC8116058, “De novo macrocyclic peptides dissect energy coupling of a heterodimeric ABC transporter by multimode allosteric inhibition” (eLife, 2021)
